Source: patent publication US10550100B2, “5-[3-[piperzin-1-yl]-3-oxo-propyl]-imidazolidine-2,4-dione derivatives as ADAMTS 4 and 5 inhibitors for treating E.G. osteoarthritis” (GALAPAGOS NV, priority 2016, dated 2020)
Read-outs that look alike come from different tables or passages of the source.

Columns and labels:
Format in all cases: biochemical
[1] = target: human ADAMTS-5 (Homo sapiens (Human), UniProt Q9UNA0); test: hADAMTS-5 TBIS-1 cleavage assay, Protocol 3; settings: Protocol 3, TBIS-1 substrate, 90 min at 37° C.; read-out: hADAMTS-5 potency IC50
Chain of human ADAMTS-5 (Q9UNA0 262-930): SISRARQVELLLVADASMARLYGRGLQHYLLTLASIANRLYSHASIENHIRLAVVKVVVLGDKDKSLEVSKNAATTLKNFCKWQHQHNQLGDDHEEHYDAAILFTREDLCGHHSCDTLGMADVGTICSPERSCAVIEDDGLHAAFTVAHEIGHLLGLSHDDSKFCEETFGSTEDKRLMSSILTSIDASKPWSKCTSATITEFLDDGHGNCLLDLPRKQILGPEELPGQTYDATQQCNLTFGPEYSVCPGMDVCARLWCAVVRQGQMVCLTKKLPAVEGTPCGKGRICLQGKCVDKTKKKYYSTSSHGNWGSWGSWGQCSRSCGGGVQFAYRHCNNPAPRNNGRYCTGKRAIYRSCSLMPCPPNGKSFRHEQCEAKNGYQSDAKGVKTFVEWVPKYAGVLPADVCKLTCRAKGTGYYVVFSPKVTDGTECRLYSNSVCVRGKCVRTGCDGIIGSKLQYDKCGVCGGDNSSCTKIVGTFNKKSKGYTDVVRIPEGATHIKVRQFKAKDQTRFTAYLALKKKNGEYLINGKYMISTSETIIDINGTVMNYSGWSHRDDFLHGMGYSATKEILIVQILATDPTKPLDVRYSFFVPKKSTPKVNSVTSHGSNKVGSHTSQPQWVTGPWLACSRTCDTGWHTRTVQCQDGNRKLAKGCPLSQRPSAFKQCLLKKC
Experimental: The reaction is initiated by adding to the assay plate TBIS-1 (10 μL, 4.5 μM, Anaspec) in the same buffer.
Finally, the fluorescence is read on the Envision (Perkin Elmer) after an incubation of 90 min at 37° C. (Excitation 485 nm, emission 530).

[2] = target: human ADAMTS6 (Homo sapiens (Human), UniProt Q9UKP5); test: hADAMTS-6 520 MMP FRET substrate XII cleavage assay; settings: 37° C. for 2 h, read-out: hADAMTS-6 potency IC50
Chain of human ADAMTS6 (Q9UKP5 other isoform, or with tags, fused parts or gaps): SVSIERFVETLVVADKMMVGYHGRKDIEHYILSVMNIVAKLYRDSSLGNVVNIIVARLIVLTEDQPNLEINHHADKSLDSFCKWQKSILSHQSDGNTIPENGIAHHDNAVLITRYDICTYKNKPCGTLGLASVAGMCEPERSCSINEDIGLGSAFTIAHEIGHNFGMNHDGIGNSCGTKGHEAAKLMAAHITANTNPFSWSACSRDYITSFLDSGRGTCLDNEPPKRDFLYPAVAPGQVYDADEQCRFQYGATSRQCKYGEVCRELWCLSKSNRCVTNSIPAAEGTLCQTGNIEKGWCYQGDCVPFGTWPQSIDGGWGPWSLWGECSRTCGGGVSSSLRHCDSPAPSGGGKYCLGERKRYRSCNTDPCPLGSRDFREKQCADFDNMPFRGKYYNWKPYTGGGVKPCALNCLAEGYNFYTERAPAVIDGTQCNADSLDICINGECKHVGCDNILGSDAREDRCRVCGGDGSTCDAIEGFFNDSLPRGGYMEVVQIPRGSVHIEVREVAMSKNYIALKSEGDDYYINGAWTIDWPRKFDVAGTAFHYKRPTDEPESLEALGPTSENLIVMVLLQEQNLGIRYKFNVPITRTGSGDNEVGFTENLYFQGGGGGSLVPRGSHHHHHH
From the text: The IC50 value for test compounds can be determined in a fluorescent based protease assay.
The basis for the assay is the cleavage of the substrate 520 MMP FRET substrate XII by human ADAMTS6.
The substrate contains sequence Arg-Pro-Lys-Pro-Tyr-Ala-Nva-Trp-Met-Lys (SEQ ID NO: 7) with attached a fluorescent probe and a quencher. Without ADAMTS6, the emission of the probe is quenched. If the substrate is cleaved by ADAMTS6, the emission of the probe is not quenched anymore. Inhibition of ADAMTS6 activity, will result in a decrease of the signal.
To perform the assay, 4 μL of a dilution series of compound in water, starting from 20 μM highest concentration, 1/5 dilution, is added to the wells. 2 ng ADAMTS6 enzyme is diluted in 25 mM Tris pH8.0, 0.05% CHAPS, 2.5 mM CaCl2 in a total volume of 26 μL (final concentration 0.73 nM). The reaction is started by addition of 10 μL of 1 μM 520 MMP FRET Substrate XII (final concentration, diluted in same buffer as described above) and the mixture is incubated at 37° C. for 2 h. […] After this incubation, cleavage of the substrate is measured using the Envision (Perkin Elmer, exc485/em530).

[3] = target: human TACE (Homo sapiens (Human), UniProt P78536); test: hTACE 5FAM-[…]-5TAMRA cleavage assay; settings: 75 min at room temperature, read-out: hTACE potency IC50
Chain of human TACE (P78536 215-671): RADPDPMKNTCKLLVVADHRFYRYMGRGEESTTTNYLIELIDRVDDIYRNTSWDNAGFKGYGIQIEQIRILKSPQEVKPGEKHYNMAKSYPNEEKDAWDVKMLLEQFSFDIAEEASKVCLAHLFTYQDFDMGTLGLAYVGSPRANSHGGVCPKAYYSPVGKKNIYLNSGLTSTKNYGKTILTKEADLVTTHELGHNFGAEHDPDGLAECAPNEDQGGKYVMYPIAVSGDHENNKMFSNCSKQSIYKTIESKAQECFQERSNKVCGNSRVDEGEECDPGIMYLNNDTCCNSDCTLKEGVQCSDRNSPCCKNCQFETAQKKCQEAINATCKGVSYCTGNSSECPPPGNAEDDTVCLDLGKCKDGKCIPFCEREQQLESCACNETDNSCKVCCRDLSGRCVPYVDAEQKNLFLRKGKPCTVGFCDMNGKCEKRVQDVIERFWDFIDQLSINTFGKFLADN
Experimental: Finally, the fluorescence is read on the Envision (Perkin Elmer) after an incubation of 75 min at room temperature (Excitation 485 nm, Emission 530).

[4] = target: human MMP13 (Homo sapiens (Human), UniProt P45452); test: hMMP13 390 MMP FRET Substrate I cleavage assay, Protocol 1; settings: Protocol 1, 390 MMP FRET Substrate I; read-out: hMMP-13 potency IC50
Experimental: The basis for the assay is the cleavage of the substrate 390 MMP FRET Substrate I (Anaspec Cat# AS-27076) by human MMP13 (Chemicon, Cat#CC068).
Human MMP13 is preactivated by incubated the enzyme in the same buffer complemented with 1 mM freshly prepared p-Aminophenylmercuric acetate (AMPA) for 1 h at 37° C.
The reaction is initiated by adding to the assay plate 390 MMP FRET Substrate I (10 μL, 2.5 μM) in the same buffer.
Finally, the fluorescence is read on the Envision (Perkin Elmer) after an incubation of 45 min at room temperature (Excitation 485 nm, Emission 530).

IC50 [1] [nM] | IC50 [2] [nM] | IC50 ([3]; 5FAM-LAQAVRSSSRK-5TAMRA) [nM] | IC50 [4] [nM] | IC50 ([3]; 5FAM-[…]-5TAMRA) [nM] | Compound
> 100 | 25 to 50 | > 100 | > 100 | – | COc1cc(C2CCN(C(=O)CC[C@H]3NC(=O)NC3=O)CC2)ccc1Cl [Cpd 32, (R)-5-(3-(4-(4-chloro-3-methoxyphenyl)piperidin-1-yl)-3-oxopropyl) imidazolidine-2,4-dione]
> 100 | 25 to 50 | > 100 | > 100 | – | COc1cc(C2CCN(C(=O)CC[C@H]3NC(=O)NC3=O)CC2)c(C)cc1Cl [Cpd 33, (R)-5-(3-(4-(4-chloro-5-methoxy-2-methylphenyl)piperidin-1-yl)-3-oxopropyl) imidazolidine-2,4-dione]
> 100 | 50 to 100 | > 100 | > 100 | – | COc1cc(OC)cc(C2CCN(C(=O)CC[C@H]3NC(=O)NC3=O)CC2)c1 [Cpd 34, (R)-5-(3-(4-(3,5-dimethoxy-phenyl)piperidin-1-yl)-3-oxopropyl) imidazolidine-2,4-dione]
> 100 | > 100 | – | – | – | COc1ccc(Cl)cc1C1CCN(C(=O)CC[C@H]2NC(=O)NC2=O)CC1 [Cpd 40, (R)-5-(3-(4-(5-chloro-2-methoxy-phenyl)piperidin-1-yl)-3-oxopropyl) imidazolidine-2,4-dione]
– | 0.001 to 25 | > 100 | > 100 | – | COc1cc(C2CCN(C(=O)CCC3(C)NC(=O)NC3=O)CC2)cc(F)c1Cl (stereo not drawn) [Cpd 47, 5-(3-(4-(4-chloro-3-fluoro-5-methoxyphenyl)piperidin-1-yl)-3-oxopropyl)-5-methyl-imidazolidine-2,4-dione]
> 100 | 25 to 50 | > 100 | > 100 | – | Cc1c(Cl)cc(Cl)cc1C1CCN(C(=O)CCC2(C)NC(=O)NC2=O)CC1 (stereo not drawn) [Cpd 49, 5-(3-(4-(3,5-dichloro-2-methylphenyl)piperidin-1-yl)-3-oxopropyl)-5-methyl-imidazolidine-2,4-dione]
> 100 | > 100 | > 100 | – | – | COc1cc(C2CCN(C(=O)CC[C@H]3NC(=O)NC3=O)CC2)ccc1F [Cpd 52, (R)-5-(3-(4-(4-fluoro-3-methoxyphenyl)piperidin-1-yl)-3-oxopropyl) imidazolidine-2,4-dione]
> 100 | > 100 | – | – | – | O=C1NC(=O)[C@@H](CCC(=O)N2CCC(c3ccc(F)c(F)c3)CC2)N1 [Cpd 53, (R)-5-(3-(4-(3,4-difluorophenyl)piperidin-1-yl)-3-oxopropyl) imidazolidine-2,4-dione]
> 100 | 50 to 100 | – | – | – | Cc1cc(Cl)c(F)cc1C1CCN(C(=O)CC[C@H]2NC(=O)NC2=O)CC1 [Cpd 63, (R)-5-(3-(4-(4-chloro-5-fluoro-2-methylphenyl)piperidin-1-yl)-3-oxopropyl) imidazolidine-2,4-dione]
50 to 100 | 50 to 100 | > 100 | – | – | C[C@H]1CN(C(=O)CCC2(C3CC3)NC(=O)NC2=O)CC[C@H]1c1ccc(F)c(F)c1 (stereo partly drawn) [Cpd 76, 5-cyclopropyl-5-(3-((3R,4R)-4-(3,4-difluorophenyl)-3-methylpiperidin-1-yl)-3-oxopropyl) imidazolidine-2,4-dione]
> 100 | > 100 | > 100 | – | – | C[C@H]1CN(C(=O)CC[C@@]2(C3CC3)NC(=O)NC2=O)CC[C@@H]1c1ccc(F)c(F)c1 [Cpd 77, (S)-5-cyclopropyl-5-(3-((3R,4S)-4-(3,4-difluorophenyl)-3-methylpiperidin-1-yl)-3-oxopropyl) imidazolidine-2,4-dione]
> 100 | 50 to 100 | – | – | – | CC1(CCC(=O)N2CCC(c3ccc(-c4ccccc4F)s3)CC2)NC(=O)NC1=O (stereo not drawn) [Cpd 112, 5-[3-[4-[5-(2-fluorophenyl)-2-thienyl]-1-piperidyl]-3-oxo-propyl]-5-methyl-imidazolidine-2,4-dione]

Further lines, the compound ahead of its results:

Compound | IC50 [1] [nM] | IC50 [2] [nM] | IC50 ([3]; 5FAM-LAQAVRSSSRK-5TAMRA) [nM] | IC50 [4] [nM] | IC50 ([3]; 5FAM-[…]-5TAMRA) [nM]
COc1cc(C2CCN(C(=O)CCC3(C)NC(=O)NC3=O)CC2)ccc1Cl (stereo not drawn) [Cpd 36, 5-(3-(4-(4-chloro-3-methoxyl-phenyl)piperidin-1-yl)-3-oxopropyl)-5-methyl-imidazolidine-2,4-dione] | – | 0.001 to 25 | > 100 | > 100 | –
COc1cc(OC)cc(C2CCN(C(=O)CCC3(C)NC(=O)NC3=O)CC2)c1 (stereo not drawn) [Cpd 38, 5-(3-(4-(3,5-dimethoxy-phenyl)piperidin-1-yl)-3-oxopropyl)-5-methyl-imidazolidine-2,4-dione] | > 100 | 25 to 50 | > 100 | > 100 | –
COc1ccc(Cl)cc1C1CCN(C(=O)CCC2(C)NC(=O)NC2=O)CC1 (stereo not drawn) [Cpd 41, 5-(3-(4-(5-chloro-2-methoxy-phenyl)piperidin-1-yl)-3-oxopropyl)-5-methyl-imidazolidine-2,4-dione] | > 100 | – | – | > 100 | –
COc1cc(C2CCN(C(=O)CC[C@H]3NC(=O)NC3=O)CC2)cc(F)c1F [Cpd 43, (R)-5-(3-(4-(3,4-difluoro-5-methoxy-phenyl)piperidin-1-yl)-3-oxopropyl) imidazolidine-2,4-dione] | > 100 | 25 to 50 | > 100 | > 100 | –
COc1cc(C2CCN(C(=O)CCC3(C)NC(=O)NC3=O)CC2)cc(F)c1F (stereo not drawn) [Cpd 45, 5-(3-(4-(3,4-difluoro-5-methoxyphenyl)piperidin-1-yl)-3-oxopropyl)-5-methyl-imidazolidine-2,4-dione] | > 100 | 0.001 to 25 | > 100 | > 100 | –
COc1cc(C2CCN(C(=O)CC[C@H]3NC(=O)NC3=O)CC2)cc(F)c1Cl [Cpd 46, (R)-5-(3-(4-(4-chloro-3-fluoro-5-methoxyphenyl)piperidin-1-yl)-3-oxopropyl) imidazolidine-2,4-dione] | 50 to 100 | 0.001 to 25 | > 100 | > 100 | –
Cc1c(Cl)cc(Cl)cc1C1CCN(C(=O)CC[C@H]2NC(=O)NC2=O)CC1 [Cpd 48, (R)-5-(3-(4-(3,5-dichloro-2-methylphenyl)piperidin-1-yl)-3-oxopropyl) imidazolidine-2,4-dione] | > 100 | 50 to 100 | > 100 | > 100 | –
CC1(CCC(=O)N2CCC(c3ccc(F)c(F)c3)CC2)NC(=O)NC1=O (stereo not drawn) [Cpd 56, 5-(3-(4-(3,4-difluorophenyl)piperidin-1-yl)-3-oxopropyl)-5-methyl-imidazolidine-2,4-dione] | > 100 | > 100 | – | – | –
Cc1cc(Cl)ccc1C1CCN(C(=O)CCC2(C)NC(=O)NC2=O)CC1 (stereo not drawn) [Cpd 60, 5-(3-(4-(4-chloro-2-methylphenyl)piperidin-1-yl)-3-oxopropyl)-5-methyl-imidazolidine-2,4-dione] | > 100 | 50 to 100 | – | – | –
C[C@H]1CN(C(=O)CC[C@@]2(C3CC3)NC(=O)NC2=O)CC[C@H]1c1ccc(F)c(F)c1 [Cpd 78, (S)-5-cyclopropyl-5-(3-((3R,4R)-4-(3,4-difluorophenyl)-3-methylpiperidin-1-yl)-3-oxopropyl) imidazolidine-2,4-dione] | 25 to 50 | 25 to 50 | > 100 | – | –
COc1c(Cl)cccc1C1CCN(C(=O)CC[C@@]2(C)NC(=O)NC2=O)CC1 [Cpd 86, (5R)-5-[3-[4-(3-chloro-2-methoxy-phenyl)-1-piperidyl]-3-oxo-propyl]-5-methyl-imidazolidine-2,4-dione] | > 100 | > 100 | – | – | –
CCOc1cc(C2CCN(C(=O)CC[C@H]3NC(=O)NC3=O)CC2)cc(OC)c1Cl [Cpd 88, (5R)-5-[3-[4-(4-chloro-3-ethoxy-5-methoxy-phenyl)-1-piperidyl]-3-oxo-propyl] imidaz olidine-2,4-dione] | > 100 | 0.001 to 25 | – | – | 50 to 100
C[C@H]1CN(C(=O)CC[C@@]2(C)NC(=O)NC2=O)CC[C@H]1c1ccc(F)c(F)c1 [Cpd 99, (5R)-5-[3-[(3R,4R)-4-(3,4-difluorophenyl)-3-methyl-1-piperidyl]-3-oxo-propyl]-5-methyl-imidazolidine-2,4-dione] | 50 to 100 | 25 to 50 | – | – | –
